Several values for one entry are separate records, joined by “and”; a condition that tells them apart may be missing. Equal entries are not always repeated. Entries after “also recorded” stand apart in the source; their conditions may differ.
Legend:
appetite and body weight = settings: cited from earlier work
gastrointestinal tract = assay: Aminosterol Induced GI Response after oral capsule in a human; type: in vivo
Protocol: Gelatin capsules were prepared for oral administration. Capsules were coated in shellac to prevent their release within the stomach. Furthermore, because squalamine and related aminosterols have antibiotic activity, enteric coating prevents the drug from altering the microbial populations of the stomach. […] Squalamine dilactate powder, 99% pure, or 1436 hydrochloride, 99% pure, was added manually into either Size 0 (for the 200 mg dose) or Size 1 (for the 100 mg dose) gelatin capsules. No excipient was added. The capsules were coated twice in 5% shellac (80% acetone/20% ethanol) and dried before use.
200 mg of squalamine (lactate salt, excipient free) in a coated gelatin capsule was administered orally to a human in the morning on an empty stomach, with water. Squalamine was synthesized as described in Zasloff et al 2011. Within 2 hours nausea was experienced, lasting about 30 minutes. At 2.5 hours, increased peristalsis (“rumbling gut”) was experienced, lasting several minutes. At about 3 hours, a clear watery discharge of about 200 ml was passed rectally. A second episode occurred at 3.2 hours. Following this episode, bowel sounds quieted. No nausea or discomfort was subsequently experienced. Appetite was near normal. Despite normal feeding, feces were not passed for 2.5 days over which time no discomfort was experienced. The first feces passed after this quiescent period was soft and relatively small considering the intake of food and the time interval. Usual bowel functions resumed by about 4 days after squalamine administration.
200 mg of 1436 (HCl salt, excipients free) in a gelatin capsule was administered orally to a human in the morning on an empty stomach, with water. […] At 2 hours, about 100 ml of clear watery diarrhea, recurring at 2.75 hours, 3 hours, 3.25 hours, and 4 hours, with progressively lesser volumes of liquid discharged. First bowel movement was passed at 3.5 days, of normal consistency. The subject experienced no abdominal discomfort, bloating, etc over this period. Usual bowel functions resumed by about 4.5 days after administration of Aminosterol 1436. […]
100 mg of squalamine was orally administered in a capsule as in the first example. […] A period of “bowel quiet” was induced, however, that lasted 2 days, after which normally formed feces were passed.

[1] = extensive studies in animals; cited from earlier work
HIV = settings: tissue culture; cited from earlier work
[2] = single 200 mg oral capsule, morning, empty stomach, one human

## CC(C)[C@@H](CC[C@@H](C)[C@H]1CC[C@H]2[C@@H]3[C@H](O)C[C@H]4C[C@@H](NCCCNCCCCNCCCN)CC[C@]4(C)[C@H]3CC[C@]12C)OS(=O)(=O)O [Aminosterol 1436]
Appetite and body weight; oral, dogs and rodents
  anorectic activity when administered orally: no anorectic activity
Appetite and body weight; parenteral
  appetite and weight on parenteral administration: potent appetite suppression and promotion of dose-dependent weight loss; also recorded: capable of inducing weight loss
Gastrointestinal tract; following a single 200 mg oral dose
  duration of the Aminosterol-Induced GI Response: about 4 days
Gastrointestinal tract; [2]
  first clear watery rectal discharge / diarrhea, time after dosing: 2 h
  further episodes of watery discharge, time after dosing: 2.75 h and 3 h and 3.25 h and 4 h
  increased peristalsis, time after dosing: ≤ 1 h
  usual bowel functions resumed, time after administration: about 4.5 days
  volume of first clear watery discharge: about 100 ml
Gastrointestinal tract; single 200 mg oral capsule, morning, empty stomach, normal behavior about 1 passage every 24 hours
  time without feces / to first bowel movement after dosing: 3.5 days
Gastrointestinal tract; single 200 mg oral dose, versus normal about 1 passage every 24 hours
  estimated reduction of small intestinal motility: 3.5 fold
[1]
  absorption from the gastrointestinal tract: neither squalamine nor Aminosterol 1436 can be absorbed to any extent
HIV
  antiviral activity: exhibits antiviral activity against HIV

Reference: patent US10975116B2, “Methods of treating and preventing gastrointestinal motility disorders using aminosterols” (Enterin, Inc., priority 2013, dated 2021)
